Consider 43 compounds from BindingDB's records for doi:10.7270/Q2639NCQ (The Scripps Research Institute Molecular Screening Center, 2013).

The target in this assay is T1, Mitochondrial peptide methionine sulfoxide reductase (Bos taurus, UniProt P54149).
T1 sequence (P54149 whole entry): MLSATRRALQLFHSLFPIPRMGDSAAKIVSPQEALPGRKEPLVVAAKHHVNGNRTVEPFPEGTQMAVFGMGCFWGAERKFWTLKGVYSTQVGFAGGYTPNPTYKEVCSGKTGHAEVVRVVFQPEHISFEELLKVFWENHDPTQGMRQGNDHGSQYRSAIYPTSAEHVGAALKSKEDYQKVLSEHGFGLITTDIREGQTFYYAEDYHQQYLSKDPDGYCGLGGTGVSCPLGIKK
On to `COc1cccc(C2=Nc3nnnn3C(c3cccc(OC)c3OC)C2)c1` (stereo not drawn), for which the concentration for half-maximal inhibition (IC50) is > 155 µM.
Regarding `O=C1C(Cl)=C(Nc2ccc3cn[nH]c3c2)C(=O)c2ccccc21`, the IC50 was > 155 µM.
The same measure for `COc1ccc(CNC(=O)c2c(C)oc3c2C(=O)c2ccccc2C3=O)cc1`: > 155 µM; for `CCOC(=O)C1CCN(C(=O)c2c(C)oc3c2C(=O)c2ccccc2C3=O)CC1`: > 155 µM; for `O=[N+]([O-])c1cnc(Nc2ccc(Cl)cn2)c([N+](=O)[O-])c1`: > 155 µM.
With `CC(Nc1ccc([N+](=O)[O-])cc1[N+](=O)[O-])c1ccccc1` (stereo not drawn), the IC50 is > 155 µM.
Turning to `COc1ccccc1-c1cc(C(F)(F)F)nc(N2CCOCC2)n1`, the IC50 was > 155 µM.
With `N#Cc1c(NCCCO)nc(-c2ccco2)c2c1CCCC2`, the IC50 is > 155 µM.
For `CC(N=O)c1cc(C(C)(C)C)c(O)c(C(C)(C)C)c1` (stereo not drawn) the value was > 155 µM; for `CCOC(=O)C(=CC(C#N)C(=O)OCC)C(=N)N1CCN(c2ccc(OC)cc2)CC1` (stereo not drawn), 139 µM; for `Cc1ccc(Nc2ccc(C(F)(F)F)cc2[N+](=O)[O-])cc1`, > 155 µM.
The same measure for `Nc1nnc(CC(=O)N/N=C/c2ccc(-c3ccccc3)o2)s1`: > 155 µM.
The same measure for `Cc1ccc(-c2cc(C(F)F)nc(N3CCOCC3)n2)cc1`: > 155 µM; for `CC(Sc1ncc(C(F)(F)F)cc1Cl)C(=O)NC(N)=O` (stereo not drawn): > 155 µM; for `CC(=N)C(C#N)C(=O)CSc1nn(-c2ccc(Cl)cc2)c(=S)s1` (stereo not drawn): > 155 µM.
As for `CC(=O)N1N=C(c2ccncc2)OC1(Cc1ccccc1)Cc1ccccc1`, the IC50 is > 155 µM.
The same measure for `COc1ccc(/C=N/NC(=O)c2cc3cc(OC)c(OC)cc3[nH]2)cc1`: > 155 µM; for `O=C1N=C(N2C=CC(c3ccncc3)C=C2)C(=CN=NC(=O)c2ccccc2)S1`: > 155 µM.
For the compound `c1ccc(-n2nnnc2-n2nnc3ccccc32)cc1` [1-(1-phenyl-1,2,3,4-tetrazol-5-yl)benzotriazole], the IC50 was > 155 µM.
The same measure for `COc1cc(C2C(C(=O)c3sc(C)nc3C)C(=O)C(=O)N2CCN(C)C)cc(OC)c1OC` (stereo not drawn) [1-[2-(dimethylamino)ethyl]-3-[(2,4-dimethyl-5-thiazolyl)-oxomethyl]-4-hydroxy-2-(3,4,5-trimethoxyphenyl)-2H-pyrrol-5-one]: > 155 µM; for `CC(=O)c1cccc(Oc2cc(NN3CCCCC3)c([N+](=O)[O-])cc2[N+](=O)[O-])c1` [1-[3-[2,4-dinitro-5-(1-piperidinylamino)phenoxy]phenyl]ethanone]: > 155 µM.
For `CCOC(=O)C1CCCN(C(=O)c2cnn3c(C(F)F)cc(-c4ccc(C)cc4)nc23)C1` (stereo not drawn) [1-[7-(difluoromethyl)-5-(p-tolyl)pyrazolo[1,5-a]pyrimidine-3-carbonyl]nipecotic acid ethyl ester] the value was > 155 µM; for `O=C(NC=NOCc1ccc(Cl)cc1Cl)NOCc1ncc(C(F)(F)F)cc1Cl` [1-[[3-chloro-5-(trifluoromethyl)-2-pyridinyl]methoxy]-3-[[(2,4-dichlorophenyl)methoxyamino]methylidene]urea], > 155 µM.
The same measure for `[O-][N+]1=c2ccc(Nc3ccccc3)cc2=NC12CCCCC2` [1-oxido-N-phenyl-5-spiro[benzimidazol-1-ium-2,1'-cyclohexane]amine]: > 155 µM.
With `CCOc1cc(S(=O)(=O)N(CC)CC)c(OCC)cc1-n1cnnn1` [2,5-diethoxy-N,N-diethyl-4-(1,2,3,4-tetrazol-1-yl)benzenesulfonamide], the IC50 is > 155 µM.
For `c1cnn(-c2cncc(-n3cccn3)n2)c1` [2,6-bis(1-pyrazolyl)pyrazine] the value was > 155 µM.
Consider `N#Cc1c(-n2cccc2C=O)sc2c1CCCC2` [2-(2-methanoylpyrrol-1-yl)-4,5,6,7-tetrahydro-1-benzothiophene-3-carbonitrile], for which the IC50 is > 155 µM.
For `O=C1C(=O)N(CCCn2ccnc2)C(c2cccc(Br)c2)C1C(=O)c1ccco1` (stereo not drawn) [2-(3-bromophenyl)-3-[2-furanyl(oxo)methyl]-4-hydroxy-1-[3-(1-imidazolyl)propyl]-2H-pyrrol-5-one] the value was > 155 µM; for `Cc1ccnc(N2C(=O)c3cccc4c([N+](=O)[O-])ccc(c34)C2=O)c1` [2-(4-Methyl-pyridin-2-yl)-6-nitro-benzo[de]isoquinoline-1,3-dione], > 155 µM.
As to `Cc1c(OCC(N)=O)ccc2c(-c3ccccc3)cc(=O)oc12` [2-(8-methyl-2-oxidanylidene-4-phenyl-chromen-7-yl)oxyethanamide], the IC50 was > 155 µM.
As for `O=C(c1ccco1)c1cc2c(ccc3ccccc32)oc1=O` [2-(furan-2-ylcarbonyl)benzo[f]chromen-3-one], the IC50 was > 155 µM.
As to `CC1=CC(=C(C#N)C#N)C=C(C)N1CCN1CCNCC1` [2-[2,6-dimethyl-1-(2-piperazin-1-ylethyl)pyridin-4-ylidene]propanedinitrile], the IC50 is > 155 µM.
For `CN(C)CCCN1C(=O)c2cccc3c([N+](=O)[O-])ccc(c23)C1=O` [2-[3-(dimethylamino)propyl]-6-nitro-1H-benzo[de]isoquinoline-1,3(2H)-dione] the value was > 155 µM; for `O=C(O)Cc1sc(N=NC=CCc2ccccc2)nc1O` [2-[4-oxo-2-[(2E)-2-[(E)-3-phenylprop-2-enylidene]hydrazinyl]-1,3-thiazol-5-yl]acetic acid], 97.5 µM.
The same measure for `CCN(c1ccccc1)c1nc2nonc2nc1NCCO` [2-[6-(Ethyl-phenyl-amino)-[1,2,5]oxadiazolo[3,4-b]pyrazin-5-ylamino]-ethanol]: > 155 µM; for `CCOC(=O)c1c(NC(=O)COC(=O)/C=C/c2ccco2)sc2c1CC(C)(C)NC2(C)C` [2-[[2-[(E)-3-(2-furanyl)-1-oxoprop-2-enoxy]-1-oxoethyl]amino]-5,5,7,7-tetramethyl-4,6-dihydrothieno[2,3-c]pyridine-3-carboxylic acid ethyl ester]: > 155 µM; for `O=Cc1c(-c2ccccc2)nc2ccccn12` [2-phenyl-3-imidazo[1,2-a]pyridinecarboxaldehyde]: > 155 µM.
The same measure for `O=Cc1cn(-c2ccccc2)nc1-c1ccc2c(c1)OCCO2` [3-(2,3-Dihydro-benzo[1,4]dioxin-6-yl)-1-phenyl-1H-pyrazole-4-carbaldehyde]: > 155 µM.
As for `Cc1ccc(C)n1-n1c(C)nc2scc(-c3cccs3)c2c1=O` [3-(2,5-dimethyl-1-pyrrolyl)-2-methyl-5-thiophen-2-yl-4-thieno[2,3-d]pyrimidinone], the IC50 is > 155 µM.
For `N#CCCSc1nc(N2CCOCC2)c2c(c1C#N)CCCC2` [3-(2-cyanoethylthio)-1-(4-morpholinyl)-5,6,7,8-tetrahydroisoquinoline-4-carbonitrile] the value was > 155 µM; for `O=Cc1cn(-c2ccccc2)nc1-c1ccc(F)cc1` [3-(4-fluorophenyl)-1-phenyl-1H-pyrazole-4-carbaldehyde], > 155 µM; for `CCSc1nc(N2CCOCC2)c2c(c1C#N)CCCC2` [3-(ethylthio)-1-(4-morpholinyl)-5,6,7,8-tetrahydroisoquinoline-4-carbonitrile], > 155 µM.
For `Cc1cc(/C=C(/C#N)c2cccc(F)c2)c(C)n1-c1cccnc1` [3-[2,5-dimethyl-1-(3-pyridinyl)-1H-pyrrol-3-yl]-2-(3-fluorophenyl)acrylonitrile] the value was > 155 µM.
